The text below walks through data of publication PMC11788587, “Validating Low‐Dose Iohexol as a Marker for Glomerular Filtration Rate by In Vitro and In Vivo Studies” (Clinical and Translational Science, 2025).

Like-named read-outs stand apart in the source and are kept apart here.

One series concerns the target T1, hMATE1 (Homo sapiens, UniProt Q96FL8).
T1 construct: expressed in transfected cells; host or cells: HEK-293 (293) cells, pEBTetD plasmid, doxycycline-induced
T1 sequence (Q96FL8 1-570): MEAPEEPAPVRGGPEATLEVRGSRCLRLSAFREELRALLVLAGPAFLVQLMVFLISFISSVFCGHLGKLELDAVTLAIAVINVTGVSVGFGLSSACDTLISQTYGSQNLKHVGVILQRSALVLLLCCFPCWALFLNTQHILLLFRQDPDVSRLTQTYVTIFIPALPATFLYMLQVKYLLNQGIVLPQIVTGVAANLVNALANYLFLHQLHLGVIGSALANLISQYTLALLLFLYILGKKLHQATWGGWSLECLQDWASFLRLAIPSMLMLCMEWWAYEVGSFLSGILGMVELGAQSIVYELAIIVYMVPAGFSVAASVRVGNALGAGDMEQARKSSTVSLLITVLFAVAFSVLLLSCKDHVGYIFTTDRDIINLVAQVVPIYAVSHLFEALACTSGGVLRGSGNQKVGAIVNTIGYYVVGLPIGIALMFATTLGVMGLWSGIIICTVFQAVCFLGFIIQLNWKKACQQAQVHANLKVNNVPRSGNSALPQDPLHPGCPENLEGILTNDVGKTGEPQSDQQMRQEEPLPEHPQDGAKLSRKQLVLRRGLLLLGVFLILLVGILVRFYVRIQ
The experiment in a line: Inhibition of hMATE1-mediated MPP+ uptake, stably transfected 293 cells. In kind it is cell-based. Conditions: substrate 3 µM MPP+, median (95% CI). The text has this: We characterized the inhibitory potential of iohexol on major drug transporters recommended by regulatory agencies, which were previously assessed in a clinical transporter phenotyping cocktail study. These transporters include hOAT1, hOAT3, hOCT1, hOCT2, hMATE1, hMATE2K, human organic anion transporter polypeptides (hOATP)1B1, hOATP1B3, and human multidrug resistance protein (hMDR)1. Additionally, we investigated whether iohexol is a substrate for any of the renal transporters among these, including hOAT1/3, hOCT1/2, and hMATE1/2K. Cell‐based uptake assays were used to assess the activities of hOAT1/3, hOCT1/2, hMATE1/2K, and hOATP1B1/1B3. Inside‐out membrane vesicle uptake assays were used to evaluate the activity of hMDR1.
To determine the maximal inhibitory potential of iohexol, intracellular accumulation of a standard substrate was measured with and without the clinically relevant highest concentrations of iohexol. Control inhibitors were tested in each experiment.
In all subsequent in vitro studies, control experiments were conducted to validate the results. These included positive controls for substrates and inhibitors, as well as cells either without transporter expression or transfected with an empty vector, and control vesicles. Each condition, including cells or vesicles with the transporter and their respective controls, was analyzed in at least three replicates. For detailed information on materials, methods, and data analysis techniques used, refer to the Supporting Information. […]
R version 4.2.1 (R Foundation for Statistical Computing, Vienna, Austria) was used for statistical evaluations and data visualization. The data analysis approach for the in vitro study was detailed by Hsin CH et al..^1 In brief, for transport assays, the initial uptake rate was calculated by normalizing the substrate concentration to both the protein concentration and the incubation time for each dish or well. The transporter-mediated uptake rate (net uptake) was determined by performing an element-wise subtraction of uptake rates from different conditions. […]

The nature of series [1]: Clinical trial in healthy volunteers, adverse events. In kind it is in vivo, human. To be noted: 12 healthy subjects, single i.v. doses 259 mg and 3235 mg. The method, then: The trial had two separate objectives, that is, (i) to assess dose linearity of iohexol pharmacokinetics for a lower dose (reported here) and (ii) to improve the assessment of creatinine volume of distribution by oral administration of creatinine in beef meat (will be reported separately). Building on the PK findings from a 3235 mg iohexol injection, we determined that the current quantification method is sufficiently sensitive to measure iohexol plasma concentrations corresponding to doses over 10 times lower, up to at least 20 h postadministration. Therefore, a 259 mg iohexol dose was selected for this study. […] Each participant was randomly assigned to one of six sequences, receiving iohexol intravenously at different single doses on separate occasions: (1) 259 mg iohexol without beef ingestion (defined as “fasting,” “test”); (2) 3235 mg iohexol fasting (“reference”); and (3) 3235 mg iohexol with beef ingestion (not reported here). The washout interval between administrations was 7 to 14 days. Adverse events were surveyed until the completion of the study.
Adverse events were monitored at multiple time points: within 1 hour before the administration of iohexol, and then at 10 minutes, 30 minutes, 1 hour, and 2 hours post-dose, as well as at the end of hospitalization for each period and during the end-of-study evaluation. Vital signs were recorded at the same time points as adverse events. Overall health was reassessed at the end of the study.

Series [2] concerns rat‐isolated perfused kidney. On the set-up: method as in ref 14 Masereeuw et al. Conditions: mean ± standard deviation, ref 14 Masereeuw et al., cited from earlier work.
The subject of another series is OCT2. On the set-up: method as in ref 15 Yang et al. To be noted: HK‐2 cells; ref 15 Yang et al.; cited from earlier work.
The test system of series [3] is human Phase I or Phase II enzymes. On the set-up: method as in PMID 32948918. To be noted: cited from earlier work.

In the case of `CC(=O)N(CC(O)CO)c1c(I)c(C(=O)NCC(O)CO)c(I)c(C(=O)NCC(O)CO)c1I` (stereo not shown) [iohexol], the “Inhibitory effect (% reduction of specific activity)” value at hMATE1 (20 mM iohexol) is “no notable inhibitory effects”. For the same molecule, the inhibition at 1000 µM at hMATE1 (HEK293, 1 mM iohexol, read-out: Inhibitory effect (% reduction of specific activity)) amounted to 5.4%. Moreover, the inhibition at 20000 µM on hMATE1 (HEK293, 20 mM iohexol, read-out: Inhibitory effect (% reduction of specific activity)) was found to be 12%. For the same molecule, in series [1], the “Adverse events related to iohexol” value was “None of these were related to iohexol”, the “Number of adverse events reported” value stood at 9 and the “Subjects reporting adverse events” value is given as 7 of 12. The “Ratio of renal clearance to GFR” value in series [2] (perfusate concentration 5 μg/mL) was 0.63 ± 0.06. Also, the “Ratio of renal clearance to GFR” value in series [2] (perfusate concentration 20 μg/mL) was 1.02 ± 0.06. For the same molecule, in the series on OCT2, the “Expression of OCT2” value was “downregulated”. Moreover, the “Inhibition of human Phase I or Phase II enzymes” value in series [3] is recorded as “does not inhibit”.
